According to article PMC9457583, “New Chemicals Suppressing SARS-CoV-2 Replication in Cell Culture” (Molecules, 2022):
Where two headings read alike, the source gives them in different places. Peptide text beside a SMILES is read from it. * marks the point of attachment. Cbz = O=C(OCc1ccccc1)*

What was measured:
SARS-CoV-2 [1] = assay: microbe, parasite or virus in culture; format: cell-based
SARS-CoV-2 Mpro = conditions: read-out: IC50 (Mpro); cited from earlier work
[2] = parameters: method as in PMID 32855413; conditions: read-out: CC50 (cytotoxicity); cited from earlier work
SARS-CoV-2 [3] = system: SARS-CoV-2; parameters: method as in PMID 32855413; conditions: cited from earlier work
SARS-CoV-2 [4] = system: SARS-CoV-2; parameters: method as in PMID 34726479; conditions: Vero E6 cell culture; read-out: EC50 (virus replication); cited from earlier work
SARS-CoV-2 [5] = system: SARS-CoV-2; parameters: method as in PMID 35287429; conditions: read-out: EC50 (SARS-CoV-2 replication in cell culture); cited from earlier work
SARS-CoV-2 [6] = conditions: SARS-CoV-2-infected Vero E6/TMPRSS2 cells; cited from earlier work
SARS-CoV-2 [7] = system: SARS-CoV-2; parameters: method as in PMID 33062953; conditions: cited from earlier work
[8] = Severe acute respiratory syndrome coronavirus 2, Vero C1008, Vero E6 cells, MOI 0.1, 96 h, MTT, read-out: EC50
[9] = Severe acute respiratory syndrome coronavirus 2, Vero C1008, 96 h

Row | SMILES | EC50 (SARS-CoV-2 [1]; [8]) | melting point | also measured
1 | Cc1ccc2c(c1)-c1c(ssc1=S)C(C)(C)N2C(=O)COc1ccc2ccccc2c1 [Compound 3c] | 2710 ± 910 nM | 153 to 154 °C | 
2 | O=c1[nH]c2ccc(Cl)cc2c(-c2ccccc2)c1SC(=S)N1CCCCC1 [Compound 6b, 6-chloro-2-oxo-4-phenyl-1,2-dihydroquinolin-3-yl piperidine-1-carboditioate] |  |  | EC50 (SARS-CoV-2 [1]; [9]): 7620 ± 1840 nM
3 | Cc1ccc2c(c1)N(C(=O)COc1ccc3ccccc3c1)C(C)(C)c1ssc(=S)c1-2 [Compound 3b] | 1160 ± 230 nM | > 144 °C | 
4 | CC(C)C[C@H](NC(=O)OCc1ccccc1)C(=O)N[C@H](C=O)CC1CCNC1=O (stereo partly drawn) [GC–373] |  |  | IC50 (SARS-CoV-2 Mpro): […]; CC50 [2]: > 200000 nM; EC50 (SARS-CoV-2 [3]): ~1000 nM
5 | CCC(CC)COC(=O)[C@H](C)N[P@](=O)(OC[C@H]1O[C@@](C#N)(c2ccc3c(N)ncnn23)[C@H](O)[C@@H]1O)Oc1ccccc1 [remdesivir, reference compound] | 2940 ± 670 nM |  | 
6 | CN1CCN(c2nc(Nc3cccc4ccccc34)nc(Nc3cccc4ccccc34)n2)CC1 [Compound 9c, 6-(4-methylpiperazin-1-yl)-N,N ^′ -di(naphthalen-1-yl)-1,3,5-triazine-2,4-amine] | 19600 ± 2940 nM | 160 to 161 °C | 
7 | CC(C)C[C@H](NC(=O)OCc1ccccc1)C(=O)N[C@@H](CC1CCNC1=O)C(O)S(=O)(=O)O (stereo partly drawn) [GC–376] |  |  | IC50 (SARS-CoV-2 Mpro): ~300 nM; CC50 [2]: > 200000 nM; EC50 (SARS-CoV-2 [3]): ~1000 nM
8 | CC1CCCCN1C(=S)Sc1c(-c2ccccc2)c2cc(Cl)ccc2[nH]c1=O (stereo not drawn) [Compound 6c, 6-chloro-2-oxo-4-phenyl-1,2-dihydroquinolin-3-yl 2-methylpiperidine-1-carboditioate] |  | 265 to 266 °C | EC50 (SARS-CoV-2 [1]; [9]): 22400 ± 2580 nM
9 | CC(C)(C)[C@H](NC(=O)C(F)(F)F)C(=O)N1C[C@H]2[C@@H]([C@H]1C(=O)N[C@H](C#N)C[C@@H]1CCNC1=O)C2(C)C [PF-07321332, nirmatrelvir] |  |  | EC50 (SARS-CoV-2 [4]): 85.3 nM
10 | COc1ccc2c(c1)-c1c(ssc1=S)C(C)(C)N2C(=O)COc1ccc2ccccc2c1 [Compound 3d] | 9400 ± 1670 nM | 136 to 137 °C | 
11 | CC(C)C[C@@H](C=O)NC(=O)[C@H](CC(C)C)NC(=O)[C@H](CC(C)C)NC(=O)OCc1ccccc1 [MG–132] (Cbz-Leu-Leu-Leu-aldehyde) |  |  | EC50 (SARS-CoV-2 [5]): 100 nM
12 | Cn1cnc(Cn2c(=O)[nH]/c(=N\c3cc4cn(C)nc4cc3Cl)n(Cc3cc(F)c(F)cc3F)c2=O)n1 [Compound S-217622] |  |  | EC50 (SARS-CoV-2 [6]): 370 nM
13 | Clc1ccc2nc(OCc3ccccc3Cl)c(N3CCOCC3)c(-c3ccccc3)c2c1 [Compound 6a, 6-chloro-2-[(2-chlorobenzyl)oxy]-3-(morpholin-4-yl)-4-phenylquinoline] | 4770 ± 1870 nM |  | 
14 | Cc1cc2c(cc1C)N(C(=O)COc1ccc3ccccc3c1)C(C)(C)c1ssc(=S)c1-2 [Compound 3a] | 510 ± 410 nM | 189 to 190 °C | 
15 | c1ccc2cc(Nc3nc(Nc4ccc5ccccc5c4)nc(N4CCCCCC4)n3)ccc2c1 [Compound 9a, 6-(azepan-1-yl)-N,N ^′ -di(naphthalen-2-yl)-1,3,5-triazine-2,4-diamine] | 18200 ± 4200 nM | 164 to 165 °C | 
16 | CC(NC(=O)C(Cc1ccccc1)NC(=O)OCc1ccccc1)C(=O)F (stereo not drawn) [Z-FA-FMK] |  |  | EC50 (virus replication in cell culture) (SARS-CoV-2 [7]): submicromolar
17 | Cn1nc(-c2ccc(C(F)(F)F)cc2)nc2c(=O)n(C)c(=O)nc1-2 [Valrycin B] |  |  | EC50 (virus replication in cell culture) (SARS-CoV-2 [7]): submicromolar
18 | c1ccc(Nc2nc(Nc3ccccc3)nc(N3CCCCCC3)n2)cc1 [Compound 9b, 6-(azepan-1-yl)-N,N’-diphenyl-1,3,5-triazine-2,4-diamine] | 1040 ± 260 nM | 160 to 161 °C | 
